The text below walks through data of ChEMBL document CHEMBL1143091, “Synthesis and SAR studies of biaryloxy-substituted triazoles as antifungal agents” (2008).

The subject of one assay is Candida albicans. Description: Antimicrobial activity against Candida albicans ATCC 76615. Type of assay: functional.
The test system of another assay is Candida tropicalis. As to the kind of experiment: Antimicrobial activity against Candida tropicalis isolates. Type of assay: functional.
A further assay concerns Cryptococcus neoformans. As to the kind of experiment: Antimicrobial activity against Cryptococcus neoformans ATCC 32609. Type of assay: functional.
The test system of another assay is Aspergillus fumigatus. Description: Antimicrobial activity against Aspergillus fumigatus isolates. Type of assay: functional.
A further assay concerns Trichophyton rubrum. As to the kind of experiment: Antimicrobial activity against Trichophyton rubrum isolates. Type of assay: functional.
For a further assay, the system named is Nannizzia gypsea. Description: Antimicrobial activity against Microsporum gypseum isolates. Type of assay: functional.
In the next assay the test system is Fonsecaea compacta. Description: Antimicrobial activity against Fonsecaea compacta isolates. Type of assay: functional.
Another assay relates to Candida parapsilosis. Description: Antimicrobial activity against Candida parapsilosis isolates. The settings on record: Lodderomyces parapsilosis.

≈ marks a conversion by molar mass, not a printed value. Bounds are passed on as bounds.

For orientation: MIC means the smallest concentration in the dilution series that meets the test's criterion for growth inhibition. A lower MIC goes with inhibition by little substance.

`O=C(Nc1ccc(-c2ccc(OCC(O)(Cn3cncn3)c3ccc(F)cc3F)cc2)cn1)c1ccc(CCl)cc1` (centres undefined): the MIC against Candida albicans is 0.0156 µg/mL (≈ 0.0271 µM); against Candida tropicalis, 0.0625 µg/mL (≈ 0.109 µM); against Cryptococcus neoformans, 0.25 µg/mL (≈ 0.434 µM); in the assay with Aspergillus fumigatus, > 64 µg/mL; with Trichophyton rubrum, 0.25 µg/mL (≈ 0.434 µM); in the assay on Nannizzia gypsea, 1 µg/mL (≈ 1.74 µM). The MIC turned out to be 1 µg/mL (≈ 1.74 µM) in the assay with Fonsecaea compacta and 0.0625 µg/mL (≈ 0.109 µM) against Candida parapsilosis.
With `C[C@@H](c1ncncc1F)[C@](O)(Cn1cncn1)c1ccc(F)cc1F` [VORICONAZOLE], the MIC against Candida albicans was 0.25 µg/mL (≈ 0.716 µM); with Candida tropicalis, 0.0156 µg/mL (≈ 0.0447 µM); against Cryptococcus neoformans it was 1 µg/mL (≈ 2.86 µM); against Aspergillus fumigatus, 0.25 µg/mL (≈ 0.716 µM); in the assay with Trichophyton rubrum, 0.0156 µg/mL (≈ 0.0447 µM); in the assay on Nannizzia gypsea, 0.0156 µg/mL (≈ 0.0447 µM). Further, the MIC against Fonsecaea compacta and with Candida parapsilosis was 0.0625 µg/mL (≈ 0.179 µM) each time.
On to `CCNc1ccc(-c2ccc(OCC(O)(Cn3cncn3)c3ccc(F)cc3F)cc2)cn1` (centres undefined), for which the MIC was 0.0625 µg/mL (≈ 0.138 µM) with Candida albicans; 0.0625 µg/mL (≈ 0.138 µM) against Candida tropicalis; 16 µg/mL (≈ 35.4 µM) in the assay with Cryptococcus neoformans; > 64 µg/mL against Aspergillus fumigatus; > 64 µg/mL against Trichophyton rubrum; > 64 µg/mL against Nannizzia gypsea. Moreover, the minimum inhibitory concentration (MIC) against Fonsecaea compacta worked out at 1 µg/mL (≈ 2.21 µM); against Candida parapsilosis it was 0.0625 µg/mL (≈ 0.138 µM).
For `C[C@@H]1[C@H](O)[C@@H](C)/C=C/C=C/C=C/C=C/C=C/C=C/C=C/[C@H](O[C@@H]2O[C@H](C)[C@@H](O)[C@H](N)[C@@H]2O)C[C@@H]2O[C@](O)(C[C@@H](O)C[C@@H](O)[C@H](O)CC[C@@H](O)C[C@@H](O)CC(=O)O[C@H]1C)C[C@H](O)[C@H]2C(=O)O` [AMPHOTERICIN B], the minimum inhibitory concentration (MIC) in the assay on Candida albicans was 0.25 µg/mL (≈ 0.271 µM); against Candida tropicalis, 4 µg/mL (≈ 4.33 µM); in the assay with Cryptococcus neoformans, 1 µg/mL (≈ 1.08 µM); against Aspergillus fumigatus, 16 µg/mL (≈ 17.3 µM); against Trichophyton rubrum, 16 µg/mL (≈ 17.3 µM); in the assay with Nannizzia gypsea it was 1 µg/mL (≈ 1.08 µM). In addition, the MIC is 16 µg/mL (≈ 17.3 µM) in the assay on Fonsecaea compacta and 1 µg/mL (≈ 1.08 µM) in the assay with Candida parapsilosis.
For the compound `OC(COc1ccc(-c2ccc(CNc3cccc(Cl)c3)cc2)cc1)(Cn1cncn1)c1ccc(F)cc1F` (centres undefined), the MIC against Candida albicans is 0.25 µg/mL (≈ 0.457 µM); against Candida tropicalis, 0.25 µg/mL (≈ 0.457 µM); in the assay on Cryptococcus neoformans, > 64 µg/mL; in the assay with Aspergillus fumigatus, > 64 µg/mL; against Trichophyton rubrum, 1 µg/mL (≈ 1.83 µM); with Nannizzia gypsea, > 64 µg/mL. Moreover, the MIC was > 64 µg/mL in the assay with Fonsecaea compacta and 0.25 µg/mL (≈ 0.457 µM) against Candida parapsilosis.
With `O=C(Nc1ccc(-c2ccc(OCC(O)(Cn3cncn3)c3ccc(F)cc3F)cc2)cn1)c1ccc(CN2CCCCC2)cc1` (centres undefined), the MIC with Candida albicans turned out to be 0.0625 µg/mL (≈ 0.1 µM); in the assay with Candida tropicalis it was 0.0625 µg/mL (≈ 0.1 µM); with Cryptococcus neoformans it was 1 µg/mL (≈ 1.6 µM); against Aspergillus fumigatus, 4 µg/mL (≈ 6.4 µM); in the assay on Trichophyton rubrum, 0.25 µg/mL (≈ 0.4 µM); in the assay with Nannizzia gypsea it was 1 µg/mL (≈ 1.6 µM). Besides, the MIC worked out at 1 µg/mL (≈ 1.6 µM) against Fonsecaea compacta and 0.0625 µg/mL (≈ 0.1 µM) against Candida parapsilosis.
Take `CCNCc1ccc(-c2ccc(OCC(O)(Cn3cncn3)c3ccc(F)cc3F)cc2)cc1` (centres undefined): the MIC in the assay with Candida albicans is 1 µg/mL (≈ 2.15 µM); with Candida tropicalis, 0.25 µg/mL (≈ 0.538 µM); in the assay with Cryptococcus neoformans, 16 µg/mL (≈ 34.4 µM); with Aspergillus fumigatus it was > 64 µg/mL; with Trichophyton rubrum it was 0.25 µg/mL (≈ 0.538 µM); against Nannizzia gypsea it was 1 µg/mL (≈ 2.15 µM). The values for the minimal inhibitory concentration (MIC) with Fonsecaea compacta and against Candida parapsilosis were 1 µg/mL (≈ 2.15 µM) and 0.25 µg/mL (≈ 0.538 µM), respectively.
Regarding `CN(C/C=C/C#CC(C)(C)C)Cc1cccc2ccccc12` [TERBINAFINE], the MIC in the assay on Candida albicans is 1 µg/mL (≈ 3.43 µM); with Candida tropicalis it was 0.25 µg/mL (≈ 0.858 µM); with Cryptococcus neoformans it was 0.25 µg/mL (≈ 0.858 µM); with Aspergillus fumigatus, 0.0625 µg/mL (≈ 0.214 µM); in the assay on Trichophyton rubrum it was 0.0625 µg/mL (≈ 0.214 µM); with Nannizzia gypsea it was 0.0156 µg/mL (≈ 0.0535 µM). The MIC amounted to 0.0625 µg/mL (≈ 0.214 µM) in the assay on Fonsecaea compacta and 0.25 µg/mL (≈ 0.858 µM) against Candida parapsilosis.
For `O=C(O)c1ccc(NCc2ccc(-c3ccc(OCC(O)(Cn4cncn4)c4ccc(F)cc4F)cc3)cc2)cc1` (centres undefined), the MIC was 0.0156 µg/mL (≈ 0.028 µM) against Candida albicans; 0.0039 µg/mL (≈ 0.00701 µM) against Candida tropicalis; > 64 µg/mL in the assay with Cryptococcus neoformans; 16 µg/mL (≈ 28.7 µM) against Aspergillus fumigatus; 0.25 µg/mL (≈ 0.449 µM) with Trichophyton rubrum; 1 µg/mL (≈ 1.8 µM) with Nannizzia gypsea. Also, the MIC against Fonsecaea compacta was 1 µg/mL (≈ 1.8 µM); in the assay with Candida parapsilosis, 0.0625 µg/mL (≈ 0.112 µM).
On to `CCN(CC)Cc1ccc(C(=O)Nc2ccc(-c3ccc(OCC(O)(Cn4cncn4)c4ccc(F)cc4F)cc3)cn2)cc1` (centres undefined), for which the MIC against Candida albicans was 0.0625 µg/mL (≈ 0.102 µM); with Candida tropicalis it was 0.0625 µg/mL (≈ 0.102 µM); in the assay with Cryptococcus neoformans it was 4 µg/mL (≈ 6.53 µM); against Aspergillus fumigatus it was > 64 µg/mL; against Trichophyton rubrum it was 1 µg/mL (≈ 1.63 µM); against Nannizzia gypsea, 1 µg/mL (≈ 1.63 µM). For the same compound, the MIC against Fonsecaea compacta and with Candida parapsilosis was 0.25 µg/mL (≈ 0.408 µM) throughout.
`CN(Cc1ccc(-c2ccc(OCC(O)(Cn3cncn3)c3ccc(F)cc3F)cc2)cc1)c1ccccc1` (centres undefined): the MIC is 1 µg/mL (≈ 1.9 µM) in the assay with Candida albicans; 0.25 µg/mL (≈ 0.475 µM) in the assay on Candida tropicalis; 1 µg/mL (≈ 1.9 µM) against Cryptococcus neoformans; > 64 µg/mL in the assay with Aspergillus fumigatus; 16 µg/mL (≈ 30.4 µM) in the assay with Trichophyton rubrum; > 64 µg/mL in the assay with Nannizzia gypsea. In addition, the values for the MIC with Fonsecaea compacta and against Candida parapsilosis were 16 µg/mL (≈ 30.4 µM) and 1 µg/mL (≈ 1.9 µM), respectively.
As to `CC(=O)N1CCN(c2ccc(OCC3COC(Cn4ccnc4)(c4ccc(Cl)cc4Cl)O3)cc2)CC1` (centres undefined) [KETOCONAZOLE], the MIC against Candida albicans is 0.25 µg/mL (≈ 0.47 µM); against Candida tropicalis, 0.0625 µg/mL (≈ 0.118 µM); in the assay with Cryptococcus neoformans, 0.0156 µg/mL (≈ 0.0294 µM); against Aspergillus fumigatus it was 1 µg/mL (≈ 1.88 µM); in the assay on Trichophyton rubrum, 0.25 µg/mL (≈ 0.47 µM); with Nannizzia gypsea, 0.25 µg/mL (≈ 0.47 µM). For the same compound, the MIC with Fonsecaea compacta was 0.25 µg/mL (≈ 0.47 µM); with Candida parapsilosis, 0.0625 µg/mL (≈ 0.118 µM).
Turning to `Nc1ccc(-c2ccc(OCC(O)(Cn3cncn3)c3ccc(F)cc3F)cc2)cn1` (centres undefined), the MIC against Candida albicans was determined as 0.0625 µg/mL (≈ 0.148 µM); in the assay with Candida tropicalis, 0.25 µg/mL (≈ 0.59 µM); against Cryptococcus neoformans, 64 µg/mL (≈ 151 µM); in the assay with Aspergillus fumigatus, 4 µg/mL (≈ 9.45 µM); with Trichophyton rubrum, 0.0156 µg/mL (≈ 0.0368 µM); in the assay with Nannizzia gypsea it was 0.25 µg/mL (≈ 0.59 µM). For the same compound, the MIC in the assay with Fonsecaea compacta turned out to be 0.0625 µg/mL (≈ 0.148 µM); with Candida parapsilosis it was 0.25 µg/mL (≈ 0.59 µM).
With `Cc1ccc(C(=O)Nc2ccc(-c3ccc(OCC(O)(Cn4cncn4)c4ccc(F)cc4F)cc3)cn2)cc1` (centres undefined), the MIC in the assay on Candida albicans was 0.0625 µg/mL (≈ 0.115 µM); in the assay with Candida tropicalis, 0.0625 µg/mL (≈ 0.115 µM); against Cryptococcus neoformans it was 0.25 µg/mL (≈ 0.462 µM); in the assay with Aspergillus fumigatus it was > 64 µg/mL; against Trichophyton rubrum, 0.0625 µg/mL (≈ 0.115 µM); against Nannizzia gypsea, 0.25 µg/mL (≈ 0.462 µM). Besides, the minimal inhibitory concentration (MIC) against Fonsecaea compacta was 1 µg/mL (≈ 1.85 µM); with Candida parapsilosis, 0.0625 µg/mL (≈ 0.115 µM).
Turning to `Oc1ccc(CNc2ccc(-c3ccc(OCC(O)(Cn4cncn4)c4ccc(F)cc4F)cc3)cn2)cc1` (centres undefined), the MIC against Candida albicans was 0.0625 µg/mL (≈ 0.118 µM); against Candida tropicalis, 0.0156 µg/mL (≈ 0.0295 µM); with Cryptococcus neoformans, > 64 µg/mL; with Aspergillus fumigatus, > 64 µg/mL; in the assay on Trichophyton rubrum, > 64 µg/mL; with Nannizzia gypsea, 4 µg/mL (≈ 7.55 µM). Further, the minimal inhibitory concentration (MIC) turned out to be 1 µg/mL (≈ 1.89 µM) in the assay on Fonsecaea compacta and 0.0625 µg/mL (≈ 0.118 µM) against Candida parapsilosis.
On to `OC(COc1ccc(-c2ccc(NCc3cccc(Cl)c3)nc2)cc1)(Cn1cncn1)c1ccc(F)cc1F` (centres undefined), for which the MIC is 4 µg/mL (≈ 7.3 µM) in the assay with Candida albicans; 0.25 µg/mL (≈ 0.456 µM) with Candida tropicalis; 4 µg/mL (≈ 7.3 µM) in the assay on Cryptococcus neoformans; > 64 µg/mL in the assay on Aspergillus fumigatus; 4 µg/mL (≈ 7.3 µM) against Trichophyton rubrum; 1 µg/mL (≈ 1.82 µM) in the assay with Nannizzia gypsea. The values for the MIC in the assay with Fonsecaea compacta and against Candida parapsilosis were 4 µg/mL (≈ 7.3 µM) and 0.25 µg/mL (≈ 0.456 µM), respectively.
For the compound `CNCc1ccc(-c2ccc(OCC(O)(Cn3cncn3)c3ccc(F)cc3F)cc2)cc1` (centres undefined), the MIC against Candida albicans is 0.25 µg/mL (≈ 0.555 µM); against Candida tropicalis, 0.25 µg/mL (≈ 0.555 µM); against Cryptococcus neoformans it was 64 µg/mL (≈ 142 µM); against Aspergillus fumigatus it was > 64 µg/mL; in the assay on Trichophyton rubrum, 0.0625 µg/mL (≈ 0.139 µM); with Nannizzia gypsea it was 1 µg/mL (≈ 2.22 µM). The MIC in the assay with Fonsecaea compacta is 4 µg/mL (≈ 8.88 µM); with Candida parapsilosis, 0.25 µg/mL (≈ 0.555 µM).
Regarding `O=C(CN1CCNCC1)Nc1ccc(-c2ccc(OCC(O)(Cn3cncn3)c3ccc(F)cc3F)cc2)cn1` (centres undefined), the MIC is 16 µg/mL (≈ 29.1 µM) with Candida albicans; 1 µg/mL (≈ 1.82 µM) with Candida tropicalis; 64 µg/mL (≈ 116 µM) against Cryptococcus neoformans; > 64 µg/mL against Aspergillus fumigatus; 1 µg/mL (≈ 1.82 µM) in the assay on Trichophyton rubrum; 1 µg/mL (≈ 1.82 µM) in the assay with Nannizzia gypsea. Besides, the MIC in the assay with Fonsecaea compacta amounted to 1 µg/mL (≈ 1.82 µM); against Candida parapsilosis, 4 µg/mL (≈ 7.28 µM).
